Data on two compounds can be found in patent US20120164226A1, “Compositions and Methods for Improving Prognosis of a Human with Subarachnoid Hemorrhage” (priority 2007, published 2012).

In experiment [1] the test system is Subarachnoid Hemorrhage (SAH) Dog Model. The experiment is described as follows: Study 2: angiographic vasospasm (basilar artery diameter) in SAH dog model. It counts as in vivo. As to conditions: oral nimodipine 0.86 mg/kg six times per day till day 21. The protocol: The mixture was added to a surfactant containing aqueous solution to form an emulsion and the solvent extracted to produce the flowable microparticulate nimodipine formulation. […] The microparticulate nimodipine formulation is combined with a pharmaceutical carrier to form the pharmaceutical composition of the described invention. […] The placebo formulation contained the microparticles plus vehicle, but no nimodipine. […] (Data not shown). […] On Day 1, the dogs were weighed, baseline blood was collected and blood pressure, temperature, heart rate oxygen, and blood gases were monitored throughout the surgical procedure. Cerebral angiography was performed through one vertebral artery. Images were captured using identical exposure factors and magnification for every angiogram. An internal magnification standard was included in every angiogram. […] The needle was withdrawn immediately after the injection. […] The animal was then turned supine, the femoral catheter was removed, and the femoral artery was ligated. The incision was closed in a standard fashion. […] The angiographic data was independently analyzed by two reviewers who were blinded to the animal group. […] Individual percent vasospasm was determined for each animal for Days 8 and 15 using formula (I): Average percent vasospasm for Days 8 and 15 was also determined for each group. […]

Experiment [2] has as its target T1, R-type calcium current in the neurohypophysial nerve endings (Homo sapiens, UniProt Q15878).
T1 construct: R-type calcium current in the neurohypophysial nerve endings at 40 nM concentration; host or cells: neurohypophysial nerve endings
As to conditions: 40 nM concentration; cited from earlier work.

For experiment [3], the target named is N-type calcium current (Homo sapiens, UniProt Q00975). The following applies: 300 nM to 500 nM; cited from earlier work.
In experiment [4] the test system is K^+ currents. As to conditions: cited from earlier work.
Experiment [5] concerns Na^+ currents. As to conditions: cited from earlier work.
Experiment [6] deals with L-type calcium currents. As to conditions: cited from earlier work.
The target in experiment [7] is P/Q-type calcium currents (Homo sapiens, UniProt O00555). As to conditions: cited from earlier work.
Experiment [8] concerns T-type calcium currents. As to conditions: cited from earlier work.
The test system of experiment [9] is R-type current in preparations of the neuronal cell body, retinal ganglion cells and hippocampal pyramidal cells. The following applies: cited from earlier work.

T1 sequence (Q15878 whole entry): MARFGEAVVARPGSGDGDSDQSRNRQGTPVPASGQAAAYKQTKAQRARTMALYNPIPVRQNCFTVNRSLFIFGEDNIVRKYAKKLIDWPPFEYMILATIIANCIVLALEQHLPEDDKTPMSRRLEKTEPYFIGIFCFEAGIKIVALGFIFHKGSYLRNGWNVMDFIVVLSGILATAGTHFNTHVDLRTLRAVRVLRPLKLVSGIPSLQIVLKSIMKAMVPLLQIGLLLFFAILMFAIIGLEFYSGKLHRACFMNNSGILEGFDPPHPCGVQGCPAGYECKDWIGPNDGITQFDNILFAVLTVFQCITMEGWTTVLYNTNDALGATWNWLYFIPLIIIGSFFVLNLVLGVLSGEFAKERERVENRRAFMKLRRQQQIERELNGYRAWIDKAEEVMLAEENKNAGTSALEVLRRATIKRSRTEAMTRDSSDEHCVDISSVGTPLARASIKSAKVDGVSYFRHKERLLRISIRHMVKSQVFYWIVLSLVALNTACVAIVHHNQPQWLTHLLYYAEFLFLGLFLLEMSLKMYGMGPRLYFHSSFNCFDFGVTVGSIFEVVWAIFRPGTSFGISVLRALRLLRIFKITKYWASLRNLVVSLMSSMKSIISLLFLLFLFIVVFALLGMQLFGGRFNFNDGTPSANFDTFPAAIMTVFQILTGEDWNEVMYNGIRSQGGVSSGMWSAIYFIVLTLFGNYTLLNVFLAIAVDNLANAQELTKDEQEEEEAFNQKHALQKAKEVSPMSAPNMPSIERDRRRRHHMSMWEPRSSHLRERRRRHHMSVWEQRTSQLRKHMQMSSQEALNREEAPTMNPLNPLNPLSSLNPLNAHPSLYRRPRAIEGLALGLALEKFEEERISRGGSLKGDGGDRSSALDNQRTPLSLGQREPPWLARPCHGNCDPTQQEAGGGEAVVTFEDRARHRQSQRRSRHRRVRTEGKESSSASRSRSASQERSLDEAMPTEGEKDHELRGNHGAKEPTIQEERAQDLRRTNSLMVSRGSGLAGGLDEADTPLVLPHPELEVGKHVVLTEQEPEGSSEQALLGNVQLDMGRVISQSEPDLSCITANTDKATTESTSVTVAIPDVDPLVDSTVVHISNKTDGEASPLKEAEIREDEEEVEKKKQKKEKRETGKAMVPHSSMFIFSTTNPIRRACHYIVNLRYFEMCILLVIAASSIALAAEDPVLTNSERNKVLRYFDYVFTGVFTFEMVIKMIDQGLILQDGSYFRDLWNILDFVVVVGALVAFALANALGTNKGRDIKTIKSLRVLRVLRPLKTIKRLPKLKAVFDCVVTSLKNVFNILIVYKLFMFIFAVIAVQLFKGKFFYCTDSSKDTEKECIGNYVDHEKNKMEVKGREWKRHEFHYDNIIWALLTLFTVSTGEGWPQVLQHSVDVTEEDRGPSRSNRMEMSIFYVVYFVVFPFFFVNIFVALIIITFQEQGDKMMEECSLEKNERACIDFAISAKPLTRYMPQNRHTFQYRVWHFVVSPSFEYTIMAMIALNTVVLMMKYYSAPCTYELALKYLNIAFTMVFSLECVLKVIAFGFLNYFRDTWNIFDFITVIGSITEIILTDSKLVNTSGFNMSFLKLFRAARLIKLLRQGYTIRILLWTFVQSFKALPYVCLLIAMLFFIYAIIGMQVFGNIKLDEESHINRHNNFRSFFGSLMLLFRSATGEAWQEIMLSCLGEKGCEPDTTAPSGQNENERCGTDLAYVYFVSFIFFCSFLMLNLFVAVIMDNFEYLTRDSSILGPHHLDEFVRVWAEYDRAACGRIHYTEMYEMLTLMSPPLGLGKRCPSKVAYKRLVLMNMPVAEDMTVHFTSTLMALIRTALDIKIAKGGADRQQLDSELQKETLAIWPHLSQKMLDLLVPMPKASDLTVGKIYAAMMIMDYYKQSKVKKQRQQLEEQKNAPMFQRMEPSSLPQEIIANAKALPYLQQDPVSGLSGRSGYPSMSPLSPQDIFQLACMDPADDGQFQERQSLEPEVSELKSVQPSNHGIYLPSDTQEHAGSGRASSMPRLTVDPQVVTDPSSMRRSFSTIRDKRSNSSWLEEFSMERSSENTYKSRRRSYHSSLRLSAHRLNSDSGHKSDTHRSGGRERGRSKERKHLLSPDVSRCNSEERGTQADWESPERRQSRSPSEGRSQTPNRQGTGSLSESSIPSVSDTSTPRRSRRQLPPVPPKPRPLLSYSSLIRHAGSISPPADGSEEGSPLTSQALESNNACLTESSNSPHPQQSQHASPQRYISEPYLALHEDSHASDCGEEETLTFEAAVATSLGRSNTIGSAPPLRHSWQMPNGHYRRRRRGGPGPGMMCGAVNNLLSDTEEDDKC
N-type calcium current, sequence (Q00975 whole entry): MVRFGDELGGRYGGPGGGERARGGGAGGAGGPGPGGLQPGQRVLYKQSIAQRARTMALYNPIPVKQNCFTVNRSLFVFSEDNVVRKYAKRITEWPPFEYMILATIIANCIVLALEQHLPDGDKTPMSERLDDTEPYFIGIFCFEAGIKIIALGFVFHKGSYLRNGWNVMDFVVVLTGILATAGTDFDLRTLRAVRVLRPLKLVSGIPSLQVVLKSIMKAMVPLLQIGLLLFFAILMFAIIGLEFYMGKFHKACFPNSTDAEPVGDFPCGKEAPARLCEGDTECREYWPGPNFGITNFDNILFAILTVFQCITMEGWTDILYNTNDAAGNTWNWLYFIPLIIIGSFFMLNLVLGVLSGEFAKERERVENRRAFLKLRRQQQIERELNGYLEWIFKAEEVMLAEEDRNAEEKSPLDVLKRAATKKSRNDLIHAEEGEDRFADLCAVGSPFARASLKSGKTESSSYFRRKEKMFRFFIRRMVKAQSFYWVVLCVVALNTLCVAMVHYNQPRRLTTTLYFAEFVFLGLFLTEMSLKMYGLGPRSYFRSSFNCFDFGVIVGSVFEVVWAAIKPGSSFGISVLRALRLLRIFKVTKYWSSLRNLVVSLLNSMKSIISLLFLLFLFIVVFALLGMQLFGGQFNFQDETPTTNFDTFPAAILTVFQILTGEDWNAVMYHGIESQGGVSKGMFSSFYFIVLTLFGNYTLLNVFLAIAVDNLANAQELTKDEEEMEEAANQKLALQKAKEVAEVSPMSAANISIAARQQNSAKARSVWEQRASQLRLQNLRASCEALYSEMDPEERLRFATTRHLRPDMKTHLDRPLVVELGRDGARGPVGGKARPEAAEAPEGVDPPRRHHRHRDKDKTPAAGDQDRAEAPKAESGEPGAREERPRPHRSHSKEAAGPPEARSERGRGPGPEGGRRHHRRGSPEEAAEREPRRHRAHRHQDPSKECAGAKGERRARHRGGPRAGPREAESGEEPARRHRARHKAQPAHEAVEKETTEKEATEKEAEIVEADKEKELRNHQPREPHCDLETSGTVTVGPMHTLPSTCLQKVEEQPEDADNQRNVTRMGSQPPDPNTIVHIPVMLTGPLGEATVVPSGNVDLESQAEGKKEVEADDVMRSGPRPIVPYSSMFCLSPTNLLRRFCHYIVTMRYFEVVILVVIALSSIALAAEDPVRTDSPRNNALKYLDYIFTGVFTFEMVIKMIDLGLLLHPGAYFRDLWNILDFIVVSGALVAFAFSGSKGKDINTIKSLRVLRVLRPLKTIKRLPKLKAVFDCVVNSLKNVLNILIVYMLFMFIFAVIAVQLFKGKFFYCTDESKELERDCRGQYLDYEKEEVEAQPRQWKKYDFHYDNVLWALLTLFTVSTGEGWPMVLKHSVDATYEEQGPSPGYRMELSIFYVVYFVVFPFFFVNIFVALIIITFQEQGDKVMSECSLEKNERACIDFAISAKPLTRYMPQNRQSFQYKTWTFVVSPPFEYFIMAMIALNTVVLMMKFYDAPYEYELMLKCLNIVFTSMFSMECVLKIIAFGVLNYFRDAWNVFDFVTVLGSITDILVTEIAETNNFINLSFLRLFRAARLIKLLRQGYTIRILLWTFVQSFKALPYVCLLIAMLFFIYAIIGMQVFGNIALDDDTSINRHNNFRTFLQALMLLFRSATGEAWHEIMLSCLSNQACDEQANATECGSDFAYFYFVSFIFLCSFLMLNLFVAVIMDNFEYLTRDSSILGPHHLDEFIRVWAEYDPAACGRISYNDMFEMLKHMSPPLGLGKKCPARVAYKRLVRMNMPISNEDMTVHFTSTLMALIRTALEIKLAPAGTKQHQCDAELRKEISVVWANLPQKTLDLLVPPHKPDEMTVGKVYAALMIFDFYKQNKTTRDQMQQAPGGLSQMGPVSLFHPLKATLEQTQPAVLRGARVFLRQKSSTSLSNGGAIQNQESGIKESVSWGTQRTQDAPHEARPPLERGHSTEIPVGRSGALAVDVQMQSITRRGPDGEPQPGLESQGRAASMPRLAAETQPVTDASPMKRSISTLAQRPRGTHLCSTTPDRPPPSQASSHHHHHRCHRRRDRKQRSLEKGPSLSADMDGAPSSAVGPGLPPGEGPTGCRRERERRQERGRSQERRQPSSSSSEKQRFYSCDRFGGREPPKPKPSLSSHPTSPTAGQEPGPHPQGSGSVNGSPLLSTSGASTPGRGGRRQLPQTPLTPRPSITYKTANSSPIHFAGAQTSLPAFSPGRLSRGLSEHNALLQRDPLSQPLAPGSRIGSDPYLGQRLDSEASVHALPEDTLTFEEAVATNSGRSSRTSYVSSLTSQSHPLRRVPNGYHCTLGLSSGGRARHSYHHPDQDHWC

Turning to `COCCOC(=O)C1=C(C)NC(C)=C(C(=O)OC(C)C)C1c1cccc([N+](=O)[O-])c1` (stereo not shown) [Control, nimodipine], the “percent vasospasm (% change in mean basilar artery diameter from baseline), Mean” value in experiment [1] (Day 8) is recorded as −27.89%; in experiment [1] (Day 15), −11.67%.

For SNX-482, the “block of R-type calcium current” value in experiment [2] is “blocks”. Further, the “N-type calcium current blocked” value in experiment [3] is 30-50%. In addition, the “effect on K+ currents” value in experiment [4] was “no effect”. Moreover, the “effect on Na+ currents” value in experiment [5] is on record as “no effect”. Besides, the “effect on L-type calcium currents” value in [6] is “no effect”. Further, in experiment [7], the “effect on P/Q-type calcium currents” value was “no effect”. For the same compound, the “effect on T-type calcium currents” value in experiment [8] is “no effect”. The “effect on R-type current” value in experiment [9] is recorded as “no significant effect”.
